Test [1] concerns the target T1, complement C5a receptor 1 (C5aR1) (Homo sapiens, UniProt P21730).
T1 construct: β-galactosidase fragment (PathHunter enzyme complementation); host or cells: CHO-K1 (PathHunter CHO-K1 C5aR1 β-arrestin cell line)
T1 sequence (P21730 1-350): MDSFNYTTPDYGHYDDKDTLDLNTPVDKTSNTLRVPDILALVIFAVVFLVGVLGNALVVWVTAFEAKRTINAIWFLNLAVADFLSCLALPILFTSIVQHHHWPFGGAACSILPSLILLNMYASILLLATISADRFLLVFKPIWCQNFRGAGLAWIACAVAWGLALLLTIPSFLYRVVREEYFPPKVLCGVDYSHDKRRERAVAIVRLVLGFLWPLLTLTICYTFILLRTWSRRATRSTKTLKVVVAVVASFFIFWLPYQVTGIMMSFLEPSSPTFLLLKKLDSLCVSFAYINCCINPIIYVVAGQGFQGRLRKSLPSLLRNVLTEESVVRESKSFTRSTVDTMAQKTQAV
Briefly: β-arrestin recruitment via C5aR1 activation in live CHO-K1 cells (PathHunter), agonist mode. The class given is cell-based. Put shortly:
(§1)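 Live CHO-K1 cells carry two galactosidase enzyme fragments, one fused to β-arrestin and one to C5aR1, so that β-arrestin recruitment restores enzyme activity. Agonist mode tests compounds alone. Antagonist mode tests them against recombinant hC5a at EC90, and IC50 values are reported in binned ranges.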
For orientation: Activated receptors often draw arrestin, which recruitment assays turn into a signal.

In test [2] the target is T1, complement C5a receptor 1 (C5aR1). Briefly: β-arrestin recruitment via C5aR1 activation in live CHO-K1 cells (PathHunter), antagonist mode. It is filed as cell-based. Particulars: antagonist mode; recombinant hC5a (EC90) as competing natural agonist; live CHO-K1 cells; read-out: [Antagonist] B-arrestin2 recruitment: Average IC50; call rule not given here. The method in brief:
as §1

Molecules are shown by their SMILES. Like-named read-outs stand apart in the source and are kept apart here. Bounds are passed on as bounds.

The IC50 is the midpoint of a concentration-inhibition curve. For `O=c1c(C2CCN(c3cnccc3Cl)CC2)cc2nccnc2n1Cc1ncccc1C(F)(F)F` [compound 71, 7-(1-(4-Chloropyridin-3-yl)piperidin-4-yl)-5-((3-(trifluoromethyl)pyridin-2-yl)methyl)-pyrido[2,3-b]pyrazin-6(5H)-one], in test [1], the “[Agonist] B-arrestin2 recruitment: Average EC50 (nM)” value (from here on “[Agonist] B-arrestin2 recruitment”) was “Non-Active”. Also, the IC50 in test [2] is 500 to 5000 nM.
The corresponding values for `O=c1c(C2CCN(c3cccnc3F)CC2)cc2nccnc2n1Cc1ncccc1C(F)(F)F` [compound 72, 7-(1-(2-Fluoropyridin-3-yl)piperidin-4-yl)-5-((3-(trifluoromethyl)pyridin-2-yl)methyl) pyrido[2,3-b]pyrazin-6(5H)-one] are “Non-Active” and above 100000 nM.
The corresponding values for `Cc1cnc2c(C)c(C3CCN(c4c(C)cccc4F)CC3)c(=O)n(Cc3nccnc3C(F)(F)F)c2n1` [compound 73, 7-(1-(2-Fluoro-6-methylphenyl)piperidin-4-yl)-3,8-dimethyl-5-((3-(trifluoromethyl)pyrazin-2-yl)methyl)pyrido[2,3-b]pyrazin-6(5H)-one] are “Non-Active” and 500 to 5000 nM.
The corresponding values for `Cc1c(C2CCN(c3cnccc3C(F)(F)F)CC2)c(=O)n(Cc2ncccc2F)c2nccnc12` [compound 86, 5-((3-Fluoropyridin-2-yl)methyl)-8-methyl-7-(1-(4-(trifluoromethyl)pyridin-3-yl)piperidin-4-yl)pyrido[2,3-b]pyrazin-6(5H)-one] are “Non-Active” and 500 to 5000 nM.
Consider `Cc1cccc(F)c1N1CCC(c2cc3nccnc3n(Cc3ncccc3OC(F)(F)F)c2=O)CC1` [compound 87, 7-(1-(2-Fluoro-6-methylphenyl)piperidin-4-yl)-5-((3-(trifluoromethoxy)pyridin-2-yl)methyl)pyrido[2,3-b]pyrazin-6(5H)-one], for which the “[Agonist] B-arrestin2 recruitment” value in test [1] is recorded as “Non-Active”. For the same compound, the concentration for half-maximal inhibition (IC50) in test [2] is below 500 nM.
On to `Cc1cccc(F)c1N1CCN(c2c(C)c3nccnc3n(Cc3ncccc3C(F)(F)F)c2=O)CC1` [compound 88, 7-(4-(2-Fluoro-6-methylphenyl)piperazin-1-yl)-8-methyl-5-((3-(trifluoromethyl)pyridin-2-yl)methyl)pyrido[2,3-b]pyrazin-6(5H)-one], for which the “[Agonist] B-arrestin2 recruitment” value in test [1] is given as “Non-Active”. For the same compound, the IC50 in test [2] was below 500 nM.
The corresponding values for `Cc1cccc(F)c1C1CCN(c2cc3nccnc3n(Cc3nccnc3C(F)(F)F)c2=O)CC1` [compound 89, 7-(4-(2-Fluoro-6-methylphenyl)piperidin-1-yl)-5-((3-(trifluoromethyl)pyrazin-2-yl)methyl) pyrido[2,3-b]pyrazin-6(5H)-one] are “Non-Active” and 5000 to 100000 nM.
Regarding `Cc1cnc2c(C)c(N3CCN(c4c(C)cccc4F)CC3)c(=O)n(Cc3ncccc3C(F)(F)F)c2n1` [compound 118, 7-(4-(2-fluoro-6-methylphenyl)piperazin-1-yl)-3,8-dimethyl-5-((3-(trifluoromethyl)pyridin-2-yl)methyl)pyrido[2,3-b]pyrazin-6(5H)-one], in test [1], the “[Agonist] B-arrestin2 recruitment” value was “Non-Active”. For the same compound, the half-maximal inhibitory concentration (IC50) in test [2] is 500 to 5000 nM.
The corresponding values for `Cc1cnc2cc(C3CCN(c4c(C)cccc4F)CC3)c(=O)n(Cc3nccnc3C(F)F)c2n1` [compound 120, 5-((3-(Difluoromethyl)pyrazin-2-yl)methyl)-7-(1-(2-fluoro-6-methylphenyl)piperidin-4-yl)-3-methylpyrido[2,3-b]pyrazin-6(5H)-one] are “Non-Active” and below 500 nM.
As for `Cc1cccc(F)c1N1CCN(c2cc3nccnc3n(Cc3ncccc3OC(F)(F)F)c2=O)CC1` [compound 123, 7-(4-(2-Fluoro-6-methylphenyl)piperazin-1-yl)-5-((3-(trifluoromethoxy)pyridin-2-yl)methyl)pyrido[2,3-b]pyrazin-6(5H)-one], in test [1], the “[Agonist] B-arrestin2 recruitment” value is reported as “Non-Active”. For the same compound, the concentration for half-maximal inhibition (IC50) in test [2] was below 500 nM.
The corresponding values for `Cc1cnc2cc(N3CCN(c4c(C)cccc4F)CC3)c(=O)n(Cc3ncccc3OC(F)(F)F)c2n1` [compound 124, 7-(4-(2-Fluoro-6-methylphenyl)piperazin-1-yl)-3-methyl-5-((3-(trifluoromethoxy)pyridin-2-yl)methyl)pyrido[2,3-b]pyrazin-6(5H)-one] are “Non-Active” and below 500 nM.
Take `COc1nccnc1Cn1c(=O)c(N2CCN(c3c(C)cccc3F)CC2)cc2ncc(C)nc21` [compound 125, 7-(4-(2-Fluoro-6-methylphenyl)piperazin-1-yl)-5-((3-methoxypyrazin-2-yl)methyl)-3-methylpyrido[2,3-b]pyrazin-6(5H)-one]: the “[Agonist] B-arrestin2 recruitment” value in test [1] is “Non-Active”. Also, the IC50 in test [2] is 500 to 5000 nM.
`Cc1nccnc1Cn1c(=O)c(C2CCN(c3c(F)cccc3C(F)(F)F)CC2)cc2nccnc21` [compound 126, 7-(1-(2-Fluoro-6-(trifluoromethyl)phenyl)piperidin-4-yl)-5-((3-methylpyrazin-2-yl)methyl)pyrido[2,3-b]pyrazin-6(5H)-one]: the “[Agonist] B-arrestin2 recruitment” value in test [1] is “Non-Active”. In test [2], the IC50 was in the range of 500 to 5000 nM.
Consider `Cc1ccnc(F)c1N1CCC(c2cc3nccnc3n(Cc3ncccc3C(F)(F)F)c2=O)CC1` [compound 127, 7-(1-(2-Fluoro-4-methylpyridin-3-yl)piperidin-4-yl)-5-((3-(trifluoromethyl)pyridin-2-yl)methyl)pyrido[2,3-b]pyrazin-6(5H)-one], for which the “[Agonist] B-arrestin2 recruitment” value in test [1] is listed as “Non-Active”. In addition, the IC50 in test [2] was below 500 nM.
`Cc1ccnc(F)c1N1CCC(c2cc3nccnc3n(Cc3nccnc3C)c2=O)CC1` [compound 128, 7-(1-(2-Fluoro-4-methylpyridin-3-yl)piperidin-4-yl)-5-((3-methylpyrazin-2-yl)methyl)pyrido[2,3-b]pyrazin-6(5H)-one]: the “[Agonist] B-arrestin2 recruitment” value in test [1] (at 10 μM) is recorded as “Non-Active at 10 μM”. In test [2], the concentration for half-maximal inhibition (IC50) was 5000 to 100000 nM.
With `Cc1ccnc(F)c1N1CCC(c2cc3nccnc3n(Cc3nccnc3C(F)(F)F)c2=O)CC1` [compound 129, 7-(1-(2-Fluoro-4-methylpyridin-3-yl)piperidin-4-yl)-5-((3-(trifluoromethyl)pyrazin-2-yl)methyl)pyrido[2,3-b]pyrazin-6(5H)-one], the “[Agonist] B-arrestin2 recruitment” value in test [1] is “Non-Active”. For the same compound, the IC50 in test [2] is below 500 nM.
The corresponding values for `Cc1cnc2cc(C3CCN(c4c(C)ccnc4F)CC3)c(=O)n(Cc3nccnc3C(F)(F)F)c2n1` [compound 130, 7-(1-(2-Fluoro-4-methylpyridin-3-yl)piperidin-4-yl)-3-methyl-5-((3-(trifluoromethyl)pyrazin-2-yl)methyl)pyrido[2,3-b]pyrazin-6(5H)-one] are “Non-Active” and below 500 nM.
Regarding `Cc1cnc2cc(C3CCN(c4ncsc4C)CC3)c(=O)n(Cc3ncccc3C(F)(F)F)c2n1` [compound 131], the “[Agonist] B-arrestin2 recruitment” value in test [1] was “Non-Active”. For the same compound, the IC50 in test [2] is below 500 nM.
The corresponding values for `Cc1cnc2cc(C3CCN(c4nncs4)CC3)c(=O)n(Cc3ncccc3C(F)(F)F)c2n1` [compound 132, 7-(1-(1,3,4-Thiadiazol-2-yl)piperidin-4-yl)-3-methyl-5-((3-(trifluoromethyl)pyridin-2-yl)methyl)pyrido[2,3-b]pyrazin-6(5H)-one] are “Non-Active” and above 100000 nM.
The corresponding values for `Cc1cnc2cc(C3CCN(c4c(C)ccnc4F)CC3)c(=O)n(Cc3ncccc3C(F)(F)F)c2n1` [compound 133, 7-(1-(2-Fluoro-4-methylpyridin-3-yl)piperidin-4-yl)-3-methyl-5-((3-(trifluoromethyl)pyridin-2-yl)methyl)pyrido[2,3-b]pyrazin-6(5H)-one] are “Non-Active” and below 500 nM.
In the case of `Cc1cnc2cc(C3CCN(c4c(C)ccnc4F)CC3)c(=O)n(Cc3nccnc3C)c2n1` [compound 134, 7-(1-(2-Fluoro-4-methylpyridin-3-yl)piperidin-4-yl)-3-methyl-5-((3-methylpyrazin-2-yl)methyl)pyrido[2,3-b]pyrazin-6(5H)-one], the “[Agonist] B-arrestin2 recruitment” value in test [1] (at 10 μM) was “Non-Active at 10 μM”. For the same compound, the IC50 in test [2] was below 500 nM.
As for `Cc1cccc(F)c1N1CCC(c2nc3ccccc3n(Cc3nccnc3C(F)(F)F)c2=O)CC1` [compound 136, 3-(1-(2-Fluoro-6-methylphenyl)piperidin-4-yl)-1-((3-(trifluoromethyl)pyrazin-2-yl)methyl)quinoxalin-2(1H)-one], in test [1], the “[Agonist] B-arrestin2 recruitment” value is reported as “Non-Active”. In addition, the IC50 in test [2] was above 100000 nM.
Consider `Cc1cnc2cc(C3CCN(c4c(C)cccc4F)CC3)c(=O)n(Cc3ncccc3C(F)F)c2n1` [compound 138, 5-((3-(Difluoromethyl)pyridin-2-yl)methyl)-7-(1-(2-fluoro-6-methylphenyl)piperidin-4-yl)-3-methylpyrido[2,3-b]pyrazin-6(5H)-one], for which the “[Agonist] B-arrestin2 recruitment” value in test [1] was “Non-Active”. Besides, the IC50 in test [2] was below 500 nM.

Values taken from patent US20260317320A1, “C5AR1 ANTAGONISTS AND USES THEREOF” (Vanqua Bio, Inc., priority 2022, published 2026).
